# Tests used:
# [1] = tested on: mononuclear phagocytes; assay: ApoA-I mediated cholesterol efflux from cholesterol-loaded monocytes (14C-cholesterol); format: cell-based, Human; conditions: ApoA-I 10 µg/ml + 24 h pretreatment with forskolin 10 µM, percent of basal efflux, men and women
# Procedure: Cellular Lipid Efflux. Human peripheral blood cells were isolated from lithium-heparin treated blood samples of adult, healthy volunteers. The peripheral blood mononuclear cell fraction was separated by density gradient centrifugation over Ficoll-Histopaque […] (Sigma). Cells positive for CD2, CD7, CD16, CD19 and CD56 were removed by appropriate magnetic beads (Dynal) leaving > 80% pure monocytes. Isolated monocytes were then cultured at a density of 1.5x10^5 cells/mL in polystyrene culture dishes (100x15mm Petri dish, Falcon) in a serum-free macrophage medium (Macrophage-SFM, Gibco Life Technologies) supplemented with 50ng/mL human recombinant M-CSF (R&D Systems). After an overnight incubation cells were cholesterol loaded for 24 hrs by addition of enzymatically modified LDL (E-LDL; 40 µg/ml), which was prepared as previously described (31). […] Lipids were extracted by liquid extraction according to the method of Bligh and Dyer (13). ^3H and ^14C radioactivities of the total lipid extracts were measured by liquid scintillation counting in order to distinguish between ^3H labeled phospholipids and ^14C-cholesterol. Lipid efflux was calculated as percentage of disintegrations per minute (dpm) in medium divided by the sum of dpm recovered from medium and cells. […]
# [2] = tested on: mononuclear phagocytes; assay: ApoA-I mediated efflux of choline containing phospholipids from monocytes (3H-choline); format: cell-based, Human; conditions: ApoA-I 10 µg/ml + 24 h pretreatment with forskolin 10 µM, percent of basal efflux, men and women
# Procedure: Cellular Lipid Efflux. Human peripheral blood cells were isolated from lithium-heparin treated blood samples of adult, healthy volunteers. The peripheral blood mononuclear cell fraction was separated by density gradient centrifugation over Ficoll-Histopaque […] (Sigma). Cells positive for CD2, CD7, CD16, CD19 and CD56 were removed by appropriate magnetic beads (Dynal) leaving > 80% pure monocytes. Isolated monocytes were then cultured at a density of 1.5x10^5 cells/mL in polystyrene culture dishes (100x15mm Petri dish, Falcon) in a serum-free macrophage medium (Macrophage-SFM, Gibco Life Technologies) supplemented with 50ng/mL human recombinant M-CSF (R&D Systems). After an overnight incubation cells were cholesterol loaded for 24 hrs by addition of enzymatically modified LDL (E-LDL; 40 µg/ml), which was prepared as previously described (31). The incubation medium was further supplemented with ^14C-cholesterol (1.5 µCi/ml) and ^3H-choline (10µCi/ml) in order to label cellular cholesterol and choline containing phospholipids. In a subset of experiments cells were stimulated with 10 µM forskolin during the labeling period. After 24 hrs monocytes were washed and incubated for 17 hrs with or without 10 µg/ml ApoA-I (Sigma) in macrophage medium containing 0.1 % bovine serum albumin and 50ng/mL M-CSF. After incubation the media were removed and centrifuged at 800 x g to precipitate any detached cells. Cells were lysed in 0.2% SDS. Lipids were extracted by liquid extraction according to the method of Bligh and Dyer (13). ^3H and ^14C radioactivities of the total lipid extracts were measured by liquid scintillation counting in order to distinguish between ^3H labeled phospholipids and ^14C-cholesterol. Lipid efflux was calculated as percentage of disintegrations per minute (dpm) in medium divided by the sum of dpm recovered from medium and cells. The ApoA-I specific efflux is expressed a percent of basal unstimulated efflux observed in serum-free macrophage medium without ApoA-I. Statistical Analysis. […]
# [3] = tested on: IL-1β; assay: Inhibition of pro-IL-1β processing and IL-1β release; format: cell-based
# [4] = tested on: neutral sphingomyelinase; assay: Ceramide formation from sphingomyelin; format: cell-based
# [5] = tested on: human fibroblasts; assay: G2-phase cell cycle arrest in fibroblasts; format: cell-based
SMILES,Cholesterol efflux ([1]; 596A/A) [%],"Cholesterol efflux ([1]; wt/wt 596G/G, 2589A/A) [%]",Phospholipid efflux ([2]; 596A/A) [%],Phospholipid efflux ([2]; 2589G/G) [%],"Phospholipid efflux ([2]; wt/wt 596G/G, 2589A/A) [%]",Caspase I mediated processing of pro-IL-1β and release of mature IL-1β [3],ceramide formation from sphingomyelin mediated by neutral sphingomyelinase [4],G2-phase cell cycle arrest [5]
C=C[C@@]1(C)CC(=O)[C@]2(O)[C@@]3(C)[C@@H](O)CCC(C)(C)[C@@H]3[C@H](O)[C@H](OC(C)=O)[C@@]2(C)O1 [forskolin],126.7 ± 37.4,121.8 ± 16.4,136.7 ± 12.8,124.5 ± 25.8,135.4 ± 20.2,–,–,–
COc1ccc(Cl)cc1C(=O)NCCc1ccc(S(=O)(=O)NC(=O)NC2CCCCC2)cc1 [glyburide],–,–,–,–,–,inhibits,inhibits,releases human fibroblasts from G2-phase cell cycle arrest

# Reference: patent EP1136552A1, “ATP binding cassette transporter 1 (ABC1) gene polymorphisms and uses thereof for the diagnosis and treatment of lipid disorders, cardiovascular diseases and inflammatory diseases” (Bayer Aktiengesellschaft, priority 2000, dated 2001)
